According to article PMC5589893, “Identification of Aspergillus fumigatus UDP-Galactopyranose Mutase Inhibitors” (Scientific Reports, 2017):

Key:
A. fumigatus UGM [1] = target: T1, A. fumigatus UGM (Aspergillus fumigatus, UniProt Q4W1X2); experiment: biochemical; assay type: binding
T1 construct: 8x His-tag (TEV-cleavable) (cleaved yes); made in house; host or cells: E. coli BL21 Turbo (DE3)
Experimental: Binding of inhibitors to UGM was measured with an Auto-ITC 200 ITC instrument. UGM was dialyzed in 50 mM potassium phosphate buffer, pH 7.0, for 2 h at 4 °C. In all cases, ligands were dissolved in dialysis buffer and protein and ligand were filtered with a […] membrane prior to loading. […] Inhibitor concentration in the syringe was 2 mM (2% DMSO), except for chrysin where the concentration was 600 µM (4% DMSO). […] Thermodynamic parameters were determined from ITC results using Microcal Origin version 7.0 (OriginLab) with the “ITC custom” add-on installed.

A. fumigatus UGM [2] = target: T1, A. fumigatus UGM; experiment: biochemical; assay type: binding; conditions: 20 µM compound, 2% DMSO, 30 nM ADP-TAMRA, normalized to negative control; read-out: Normalized anisotropy (%)
Experimental: High-throughput screening of the Spectrum Collection library using the FP assay with the ADP-TAMRA[22] probe was performed at the Virginia Tech Center for Drug Discovery Screening Laboratory. 384 well plates (Greiner 784900) were used and the reaction volume was 15 µL using 25 mM HEPES buffer (pH 7.0). For the screening, 30 nM of ADP-TAMRA with 6.7 µM UGM (based on the Bradford assay) and 20 µM of library compound were used, with a final DMSO concentration of 2%. Fluorescence polarization measurements were performed with excitation at 544 nm and emission at 584 nm, using a wavelength cutoff of 570 nm. Anisotropy measurements were performed after 30 and 120 minutes of incubation at 25 °C. Anisotropy values were normalized to the values obtained in the negative control sample: UGM, ADP-TAMRA, and DMSO (high anisotropy values). The positive control consisted of ADP-TAMRA and DMSO (low anisotropy values). The Z prime (Z′) value was determined using equation (1) where, σN,P and μN,P represent the standard deviation and the mean value the of the negative and positive controls respectively.1 Z′=1−3(σN+σP)/|μN−μP|

[3] = system: UDP-glucuronosyltransferases; conditions: cited from earlier work
UGM = target: T2, UGM (Aspergillus fumigatus, UniProt Q4W1X2); experiment: ThermoFAD melting temperature assay; assay type: binding; conditions: 20, 100 and 1000 µM compound, 2% DMSO, 1 mg/mL UGM
T2 construct: 8x His-tag (TEV-cleavable) (cleaved yes); made in house; host or cells: E. coli BL21 Turbo (DE3)
Experimental: The melting temperature[25] of UGM was determined by measuring the FAD fluorescence as a function of temperature (20–90 °C, 1 °C step) following the reported ThermoFAD procedure. The reaction mix consisted of 20 µL of 1 mg/mL UGM, 2% DMSO in 50 mM potassium phosphate buffer, pH 7.0. As a reference and positive control, the Tm was calculated in the presence DMSO and UDP (10 mM). Different concentrations of inhibitors were added in the range of 0–1 mM at a final DMSO concentration of 2% in the above-mentioned buffer. All experiments were done in triplicate.

A. fumigatus UGM [4] = target: T1, A. fumigatus UGM; experiment: biochemical; assay type: biochemical
Experimental: (§1) The reaction was quenched with the addition of 70 µL acetonitrile. […] Samples were run at a flow rate of 0.5 mL/min for 5 min. IC50 was also determined by following NADPH oxidation at 340 nm. […] Data was analyzed using KaleidaGraph software. […] Global fitting was performed with Graphpad Prims 6 software (La Jolla, CA).

S. aureus strains = conditions: cited from earlier work
A. fumigatus [5] = experiment: Toxicity study, growth in PDA medium at 37 °C; assay type: cell-based, Aspergillus fumigatus
A. fumigatus UGM [6] = target: T1, A. fumigatus UGM; experiment: biochemical; assay type: biochemical; conditions: for Type of Inhibition: NADPH oxidation at different concentrations of inhibitor and NADPH
Experimental: as §1

A. fumigatus [7] = experiment: Congo red susceptibility assay; assay type: cell-based, Aspergillus fumigatus; conditions: 100 µM compound with congo red (0.5 and 1 mg/mL), 48 h, 37 °C
A. fumigatus [8] = experiment: Thermotolerance study, growth in PDA at 50 °C; assay type: cell-based, Aspergillus fumigatus; conditions: 1000 µM compound, 48 h at 50 °C, vs reference

T1 sequence (Q4W1X2 whole entry): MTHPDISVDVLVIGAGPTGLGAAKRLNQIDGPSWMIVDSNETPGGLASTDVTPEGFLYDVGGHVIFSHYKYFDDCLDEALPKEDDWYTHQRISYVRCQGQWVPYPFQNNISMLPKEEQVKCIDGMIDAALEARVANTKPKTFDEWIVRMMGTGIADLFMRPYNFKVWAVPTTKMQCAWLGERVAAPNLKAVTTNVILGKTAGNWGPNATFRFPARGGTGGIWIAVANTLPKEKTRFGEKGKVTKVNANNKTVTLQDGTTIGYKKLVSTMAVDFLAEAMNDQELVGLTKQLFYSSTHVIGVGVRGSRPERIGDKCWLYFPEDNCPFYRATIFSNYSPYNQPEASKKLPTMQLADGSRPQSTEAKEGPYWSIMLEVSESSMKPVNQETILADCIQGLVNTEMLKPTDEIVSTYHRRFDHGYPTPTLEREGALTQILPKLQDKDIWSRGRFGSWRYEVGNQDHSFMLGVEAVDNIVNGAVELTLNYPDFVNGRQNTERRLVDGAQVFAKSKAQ
T2 sequence (Q4W1X2 whole entry): as above

## COc1ccc([C@@H]2CC(=O)c3c(O)cc(O)cc3O2)cc1O [(2S)-hesperetin]
A. fumigatus UGM [1]
  Kd: 31 ± 6 µM
A. fumigatus UGM [1]; ITC, 25 °C
  T•∆S: 2.1 ± 0.2 kcal/mol
  ∆G: -6.1 ± 0.4 kcal/mol
  ∆H: -4.1 ± 0.4 kcal/mol
A. fumigatus UGM [2]
  remaining activity at 20 µM: 17%
[3]
  Effect on UDP-glucuronosyltransferases: inhibitory effect
UGM
  Increase of Tm of UGM: ~ 2.7 °C
A. fumigatus UGM [4]; UPLC at 20 and 200 µM compound, 2% DMSO
  Inhibition of product formation, concentration dependence: concentration dependent potency
A. fumigatus UGM [4]; inhibition at 200 µM vs 20 µM compound, UPLC
  Concentration effect: +
A. fumigatus UGM [4]; read-out: Inhibition > 50 %
  inhibition at 200 µM: > 50%
S. aureus strains
  Biofilm formation inhibition: > 70%
A. fumigatus [5]; 1000 µM
  A. fumigatus toxicity: no A. fumigatus toxicity
A. fumigatus [5]; 600 and 1000 µM, 24-48 h
  A. fumigatus toxicity under optimal growth conditions: not toxic
A. fumigatus UGM [6]
  Type of Inhibition: Competitive (NADPH)
A. fumigatus UGM [6]; listed as (2S)-Hesperetin
  Type of Inhibition: competitive against NADPH
A. fumigatus UGM [6]; absence of UDP-Galf
  Inhibition of NADPH oxidation: inhibited NADPH oxidation
A. fumigatus [7]
  Growth decrease with congo red: ~ 50%
A. fumigatus [8]
  Delay in colony development: ~ 50%
